Legend:
Assay in all cases: Greenhouse experiments, herbicidal action (pre-/post-emergence treatment)
Format in all cases: in vivo
Conditions in all cases: post-emergence rate 0.0313 and 0.0156 kg of a.S./ha, scale 0 to 100
[1] = system: GALAP (catchweed bedstraw)
Description: (§1) The culture containers used were plastic pots with loamy sand containing approximately 3.0% of humus as the substrate. The seeds of the test plants were sown separately for each species.
(§2) For the pre-emergence treatment, the active compounds, which had been suspended or emulsified in water, were applied directly after seeding by means of finely distributing nozzles. The containers were irrigated gently to promote germination and growth and subsequently covered with transparent plastic hoods until the plants had taken root. This cover causes uniform germination of the test plants unless this was not adversely affected by the active compounds.
(§3) For the post-emergence treatment, the test plants were initially grown to a height of 3 to 15 cm, depending on the habit, and then treated with the active compounds which had been suspended or emulsified in water. To this end, the test plants were either sown directly and cultivated in the same containers, or they were initially cultivated separately as seedlings and transplanted into the test containers a few days prior to the treatment. The application rate for the post-emergence treatment was 0.0313 and 0.0156 kg of a. S./ha.
(§4) The plants were kept at temperatures of 10-25° C. and 20-35° C., depending on the species. The test period extended over 2 to 4 weeks. During this time, the plants were tended, and their reaction to the individual treatments was evaluated.
(§5) Evaluation was carried out using a scale from 0 to 100. 100 means no emergence of the plants, or complete destruction of at least the above-ground parts, and 0 means no damage or normal course of growth.
(§6) The plants used in the greenhouse experiments were of the following species: […]

ABUTH (velvet leaf) = system: ABUTH (velvet leaf)
Description: as §1, §2, §3, §4, §5, §6

COMBE (dayflower) = system: COMBE (dayflower)
Description: as §1, §2, §3, §4, §5, §6

SETFA (giant foxtail) = system: SETFA (giant foxtail)
Description: as §1, §2, §3, §4, §5, §6

AMARE (redroot pigweed) = system: AMARE (redroot pigweed)
Description: as §1, §2, §3, §4, §5, §6

Measured: herbicidal activity against harmful plant

CC(C)OC(=O)c1cc(-n2c(Cl)cc(C(F)(F)F)cc2=O)c(F)cc1Cl [Example 1, Isopropyl 2-Chloro-5-[2-chloro-6-oxo-4-(trifluoromethyl)-1-(6H)-pyridinyl]-4-fluorobenzoate]
very good activity: all assays above

From patent US20030216257A1, “1-aryl-4-alkyl halide-2(1h)-pyridones and their use as herbicides” (priority 2000, published 2003)
